US20230265151A1, “GIP/GLP1 CO-AGONIST COMPOUNDS” (priority 2020, published 2023)
Read-outs that look alike come from different tables or passages of the source. *1 amine or outer side, *2 acyl side, *3 side chain or, on linkers, in order; H or OH if unused. Where a SMILES comes first, the peptide text is derived from it. Side-chain parts run from the residue outwards. [ ]: non-standard residue; d: D form. The star is where a group is joined. αMePhe(2-F) = C[C@](N)(Cc1ccccc1F)C(=O)O; γGlu = O=C(O)[C@H](CCC(=O)[*:2])N[*:1]; C14 diacid = O=C(O)CCCCCCCCCCCCC(=O)*; αMeY = C[C@](N)(Cc1ccc(O)cc1)C(=O)O; 4Pal = N[C@@H](Cc1ccncc1)C(=O)O; αMeL = CC(C)C[C@](C)(N)C(=O)O; αMeS = C[C@](N)(CO)C(=O)O; Orn = NCCC[C@H](N)C(=O)O; AEEA = NCCOCCOCC(=O)O; Aib = CC(C)(N)C(=O)O

Experiments:
Type in all cases: cell-based
[1] = target: T1, hGIPR (Homo sapiens, UniProt P48546); test: Functional cAMP formation (HTRF) in HEK-293 clonal cells expressing hGIPR, 0.1% bovine casein, without or with 1.0% human serum albumin; conditions: for EC50: geometric mean
T1 construct: expressed in transfected cells
T1 sequence (P48546 22-466): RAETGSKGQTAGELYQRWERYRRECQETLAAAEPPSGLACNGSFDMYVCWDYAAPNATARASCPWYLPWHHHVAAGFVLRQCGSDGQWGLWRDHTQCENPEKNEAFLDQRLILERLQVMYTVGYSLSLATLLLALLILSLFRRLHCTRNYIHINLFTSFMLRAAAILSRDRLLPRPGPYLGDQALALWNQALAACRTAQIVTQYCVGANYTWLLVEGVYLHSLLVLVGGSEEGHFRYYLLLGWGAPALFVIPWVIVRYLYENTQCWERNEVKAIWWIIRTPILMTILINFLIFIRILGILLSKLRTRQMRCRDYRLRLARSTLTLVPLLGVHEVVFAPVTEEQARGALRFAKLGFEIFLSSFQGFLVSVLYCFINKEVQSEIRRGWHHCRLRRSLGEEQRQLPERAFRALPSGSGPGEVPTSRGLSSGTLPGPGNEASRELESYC
Summary of the method: (§1)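 Cells were stimulated with peptide for 30 min at 37° C, then lysed in buffer carrying cAMP-d2 and anti-cAMP Eu3+-cryptate for a competitive HTRF read after at least 60 min at room temperature. The 665/620 nm ratio was converted to nM cAMP against a standard curve.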

[2] = target: T2, hGCGR (Homo sapiens, UniProt P47871); test: Functional cAMP formation (HTRF) in HEK-293 clonal cells expressing hGCGR, 0.1% bovine casein, without or with 1.0% human serum albumin; conditions: geometric mean
T2 construct: expressed in transfected cells
Summary of the method: as §1

[3] = target: hGLP-1R (Homo sapiens, UniProt P43220); test: Functional cAMP formation (HTRF) in HEK-293 clonal cells expressing hGLP-1R, 0.1% bovine casein, without or with 1.0% human serum albumin; set-up: expressed in transfected cells; conditions: for EC50: geometric mean
Summary of the method: as §1

[4] = HEK293, 0.1% bovine casein and 1.0% human serum albumin, 37° C., percent of maximal response to GIP(1-42)NH2, read-out: hGIPR Emax, % ± SEM
[5] = HEK293, percent of maximal response to GIP(1-42)NH2, 37° C., 0.1% bovine casein, arithmetic mean, read-out: hGIPR Emax, % ± SEM
[6] = 0.1% bovine casein and 1.0% human serum albumin, 37° C., read-out: hGCGR EC50, nM (SEM, n)
[7] = cAMP, incubated at 37° C., 0.1% bovine casein (no human serum albumin), read-out: hGCGR EC50, nM (SEM, n)
[8] = HEK293, percent of maximal response to GLP-1(7-36)NH2, 37° C., 0.1% bovine casein, arithmetic mean, read-out: hGLP-1R Emax, % ± SEM
[9] = HEK293, read-out: hGIPR Emax, % ± SEM, 0.1% bovine casein and 1.0% human serum albumin, 37° C., percent of maximal response to GIP(1-42)NH2
[10] = hGIPR EC50, nM (SEM, n), cAMP, incubated at 37° C., 0.1% bovine casein (no human serum albumin)
[11] = hGCGR EC50, nM (SEM, n), 0.1% bovine casein and 1.0% human serum albumin, 37° C.
[12] = hGCGR EC50, nM (SEM, n), cAMP, incubated at 37° C., 0.1% bovine casein (no human serum albumin)
[13] = HEK293, read-out: hGLP-1R Emax, % ± SEM, percent of maximal response to GLP-1(7-36)NH2, 37° C., 0.1% bovine casein, arithmetic mean

T2 sequence (P47871 26-477): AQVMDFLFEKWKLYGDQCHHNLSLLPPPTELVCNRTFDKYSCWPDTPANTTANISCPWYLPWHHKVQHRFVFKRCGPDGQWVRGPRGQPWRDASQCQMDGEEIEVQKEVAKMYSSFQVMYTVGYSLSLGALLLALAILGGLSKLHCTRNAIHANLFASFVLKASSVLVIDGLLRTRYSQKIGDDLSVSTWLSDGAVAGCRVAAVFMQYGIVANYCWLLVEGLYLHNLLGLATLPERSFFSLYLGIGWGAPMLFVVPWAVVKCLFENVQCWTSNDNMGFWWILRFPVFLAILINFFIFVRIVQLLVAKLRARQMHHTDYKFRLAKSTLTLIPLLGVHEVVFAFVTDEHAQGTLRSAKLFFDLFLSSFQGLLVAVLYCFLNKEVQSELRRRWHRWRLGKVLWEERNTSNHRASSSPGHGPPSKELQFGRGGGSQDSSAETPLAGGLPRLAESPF
Chain of hGLP-1R (P43220 24-463): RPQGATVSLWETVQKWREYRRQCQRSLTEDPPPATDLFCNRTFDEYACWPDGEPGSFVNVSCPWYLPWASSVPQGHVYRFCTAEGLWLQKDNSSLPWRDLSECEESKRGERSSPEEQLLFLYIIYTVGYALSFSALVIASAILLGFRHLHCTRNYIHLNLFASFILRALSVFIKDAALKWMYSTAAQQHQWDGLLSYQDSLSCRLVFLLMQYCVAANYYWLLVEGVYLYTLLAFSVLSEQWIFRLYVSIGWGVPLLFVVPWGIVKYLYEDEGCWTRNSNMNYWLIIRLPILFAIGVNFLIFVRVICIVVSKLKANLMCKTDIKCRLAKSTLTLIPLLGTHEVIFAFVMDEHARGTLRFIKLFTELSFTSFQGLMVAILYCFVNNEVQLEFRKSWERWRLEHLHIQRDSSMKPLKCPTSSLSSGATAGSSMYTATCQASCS

SMILES | Emax [1, 4] [%] | Emax [1, 5] [%] | EC50 [2, 6] [nM] | EC50 [2, 7] [nM] | Emax [3, 8] [%] | Emax [1, 9] [%] | EC50 ([1]; hGIPR EC50, nM (SEM, n), 0.1% bovine casein and 1.0% human serum albumin, 37° C.) [nM] | EC50 [1, 10] [nM] | EC50 [2, 11] [nM] | EC50 [2, 12] [nM] | Emax [3, 13] [%] | EC50 ([3]; hGLP-1R EC50, nM (SEM, n), 0.1% bovine casein and 1.0% human serum albumin, 37° C.) [nM] | Emax ([1]; HEK293, read-out: hGIPR Emax, % ± SEM, percent of maximal response to GIP(1-42)NH2, 37° C., 0.1% bovine casein, arithmetic mean) [%] | EC50 ([3]; hGLP-1R EC50, nM (SEM, n), cAMP, incubated at 37° C., 0.1% bovine casein (no human serum albumin)) [nM] | EC50 ([1]; cAMP, incubated at 37° C., 0.1% bovine casein (no human serum albumin), read-out: hGIPR EC50, nM (SEM, n)) [nM] | EC50 ([3]; 0.1% bovine casein and 1.0% human serum albumin, 37° C., read-out: hGLP-1R EC50, nM (SEM, n)) [nM] | Emax ([3]; HEK293, 0.1% bovine casein and 1.0% human serum albumin, 37° C., percent of maximal response to GLP-1(7-36)NH2, read-out: hGLP-1R Emax, % ± SEM) [%] | EC50 ([3]; cAMP, incubated at 37° C., 0.1% bovine casein (no human serum albumin), read-out: hGLP-1R EC50, nM (SEM, n)) [nM]
CC[C@H](C)[C@H](NC(=O)[C@H](CC(C)C)NC(=O)[C@](C)(Cc1ccc(O)cc1)NC(=O)[C@@H](CCC(=O)O)NC(=O)[C@@H](NC(=O)[C@H](Cc1ccccc1)NC(=O)[C@H](CCC(=O)O)NC(=O)C(C)(C)NC(=O)[C@H](CCC(N)=O)NC(=O)[C@H](C)NC(=O)[C@H](CCCCNC(=O)COCCOCCNC(=O)COCCOCCNC(=O)CC[C@H](NC(=O)CCCCCCCCCCCCC(=O)O)C(=O)O)NC(=O)[C@H](CCCN)NC(=O)[C@H](CC(=O)O)NC(=O)[C@H](CC(C)C)NC(=O)[C@](C)(CC(C)C)NC(=O)[C@@H](NC(=O)[C@](C)(CO)NC(=O)[C@H](Cc1ccncc1)NC(=O)[C@H](CC(=O)O)NC(=O)[C@H](CO)NC(=O)[C@@H](NC(=O)[C@](C)(Cc1ccccc1F)NC(=O)[C@@H](NC(=O)CNC(=O)[C@H](CCC(=O)O)NC(=O)C(C)(C)NC(=O)[C@@H](N)Cc1ccc(O)cc1)[C@@H](C)O)[C@@H](C)O)[C@@H](C)CC)[C@@H](C)CC)C(=O)N[C@@H](CCC(=O)O)C(=O)NCC(=O)NCC(=O)N[C@@H](CCCCNC(=O)COCCOCCNC(=O)COCCOCCNC(=O)CC[C@H](NC(=O)CCCCCCCCCCCCC(=O)O)C(=O)O)C(=O)N[C@@H](CO)C(=O)N[C@@H](CO)C(=O)NCC(=O)N[C@@H](C)C(=O)N1CCC[C@H]1C(=O)N1CCC[C@H]1C(=O)N1CCC[C@H]1C(=O)N[C@@H](CO)C(N)=O [Example 213] | 95.6 | 92 | > 9950 | > 9950 | 94.8 |  |  |  |  |  |  |  |  |  |  |  |  | 
CC[C@H](C)[C@H](NC(=O)[C@H](CC(C)C)NC(=O)[C@](C)(Cc1ccc(O)cc1)NC(=O)[C@H](CCCCNC(=O)COCCOCCNC(=O)COCCOCCNC(=O)CC[C@H](NC(=O)CCCCCCCCCCCCC(=O)O)C(=O)O)NC(=O)[C@@H](NC(=O)[C@H](Cc1ccccc1)NC(=O)[C@H](CCC(=O)O)NC(=O)C(C)(C)NC(=O)[C@H](CCC(N)=O)NC(=O)[C@H](C)NC(=O)[C@H](CCCCNC(=O)COCCOCCNC(=O)COCCOCCNC(=O)CC[C@H](NC(=O)CCCCCCCCCCCCC(=O)O)C(=O)O)NC(=O)[C@H](CCCN)NC(=O)[C@H](CC(=O)O)NC(=O)[C@H](CC(C)C)NC(=O)[C@](C)(CC(C)C)NC(=O)[C@@H](NC(=O)[C@](C)(CO)NC(=O)[C@H](Cc1ccncc1)NC(=O)[C@H](CC(=O)O)NC(=O)[C@H](CO)NC(=O)[C@@H](NC(=O)[C@](C)(Cc1ccccc1F)NC(=O)[C@@H](NC(=O)CNC(=O)[C@H](CCC(=O)O)NC(=O)C(C)(C)NC(=O)[C@@H](N)Cc1ccc(O)cc1)[C@@H](C)O)[C@@H](C)O)[C@@H](C)CC)[C@@H](C)CC)C(=O)N[C@@H](CCC(=O)O)C(=O)NCC(=O)NCC(=O)N1CCC[C@H]1C(=O)N[C@@H](CO)C(=O)N[C@@H](CO)C(=O)NCC(=O)N[C@@H](C)C(=O)N1CCC[C@H]1C(=O)N1CCC[C@H]1C(=O)N1CCC[C@H]1C(=O)N[C@@H](CO)C(N)=O [Example 214] |  |  |  |  |  | 80.4 | 2.03 | 0.0351 | > 9950 | > 9950 | 93.2 | 17.9 |  |  |  |  |  | 
CC[C@H](C)[C@H](NC(=O)[C@H](CCCN)NC(=O)[C@H](CC(=O)O)NC(=O)[C@H](CC(C)C)NC(=O)[C@](C)(CC(C)C)NC(=O)[C@@H](NC(=O)[C@](C)(CO)NC(=O)[C@H](Cc1ccncc1)NC(=O)[C@H](CC(=O)O)NC(=O)[C@H](CO)NC(=O)[C@@H](NC(=O)[C@](C)(Cc1ccccc1F)NC(=O)[C@@H](NC(=O)CNC(=O)[C@H](CCC(=O)O)NC(=O)C(C)(C)NC(=O)[C@@H](N)Cc1ccc(O)cc1)[C@@H](C)O)[C@@H](C)O)[C@@H](C)CC)C(=O)N[C@@H](C)C(=O)N[C@@H](CCC(N)=O)C(=O)NC(C)(C)C(=O)N[C@@H](CCCCNC(=O)COCCOCCNC(=O)COCCOCCNC(=O)CC[C@H](NC(=O)CCCCCCCCCCCCC(=O)O)C(=O)O)C(=O)N[C@@H](Cc1ccccc1)C(=O)N[C@H](C(=O)N[C@@H](CCCCNC(=O)COCCOCCNC(=O)COCCOCCNC(=O)CC[C@H](NC(=O)CCCCCCCCCCCCC(=O)O)C(=O)O)C(=O)N[C@@](C)(Cc1ccc(O)cc1)C(=O)N[C@@H](CC(C)C)C(=O)N[C@H](C(=O)N[C@@H](CCC(=O)O)C(=O)NCC(=O)NCC(=O)N1CCC[C@H]1C(=O)N[C@@H](CO)C(=O)N[C@@H](CO)C(=O)NCC(=O)N[C@@H](C)C(=O)N1CCC[C@H]1C(=O)N1CCC[C@H]1C(=O)N1CCC[C@H]1C(=O)N[C@@H](CO)C(N)=O)[C@@H](C)CC)[C@@H](C)CC [Example 215] (H-Y[Aib]EGT[αMePhe(2-F)]TSD[4Pal][αMeS]I[αMeL]LD[Orn]IAQ[Aib]K([AEEA-AEEA-γGlu-C14 diacid])FIK([AEEA-AEEA-γGlu-C14 diacid])[αMeY]LIEGGPSSGAPPPS-NH2) |  |  |  |  |  | 91.3 |  | 0.0437 | > 9950 | > 9950 | 89.8 |  | 85 | 0.44 |  |  |  | 
CC[C@H](C)[C@H](NC(=O)[C@H](CCCN)NC(=O)[C@H](CC(=O)O)NC(=O)[C@H](CC(C)C)NC(=O)[C@](C)(CC(C)C)NC(=O)[C@@H](NC(=O)[C@](C)(CO)NC(=O)[C@H](Cc1ccncc1)NC(=O)[C@H](CC(=O)O)NC(=O)[C@H](CO)NC(=O)[C@@H](NC(=O)[C@](C)(Cc1ccccc1F)NC(=O)[C@@H](NC(=O)CNC(=O)[C@H](CCC(=O)O)NC(=O)C(C)(C)NC(=O)[C@@H](N)Cc1ccc(O)cc1)[C@@H](C)O)[C@@H](C)O)[C@@H](C)CC)C(=O)N[C@@H](C)C(=O)N[C@@H](CCC(N)=O)C(=O)NC(C)(C)C(=O)N[C@@H](CCC(=O)O)C(=O)N[C@@H](Cc1ccccc1)C(=O)N[C@H](C(=O)N[C@@H](CCCCNC(=O)COCCOCCNC(=O)COCCOCCNC(=O)CC[C@H](NC(=O)CCCCCCCCCCCCC(=O)O)C(=O)O)C(=O)N[C@@](C)(Cc1ccc(O)cc1)C(=O)N[C@@H](CC(C)C)C(=O)N[C@H](C(=O)N[C@@H](CCCCNC(=O)COCCOCCNC(=O)COCCOCCNC(=O)CC[C@H](NC(=O)CCCCCCCCCCCCC(=O)O)C(=O)O)C(=O)NCC(=O)NCC(=O)N1CCC[C@H]1C(=O)N[C@@H](CO)C(=O)N[C@@H](CO)C(=O)NCC(=O)N[C@@H](C)C(=O)N1CCC[C@H]1C(=O)N1CCC[C@H]1C(=O)N1CCC[C@H]1C(=O)N[C@@H](CO)C(N)=O)[C@@H](C)CC)[C@@H](C)CC [Example 216] | 63.4 | 88.5 | > 9950 | > 9950 | 93.6 |  |  |  |  |  |  |  |  |  | 0.0287 | 32.3 | 117 | 0.384
